Measured values reported in patent US8481005B2, “Methods to prevent cytotoxicity using N-acetyl-cysteine” (priority 2006, dated 2013).

How the values were obtained:
[1] = test system: differentiated pulp cells (odontoblasts); test: Composite discs on differentiated pulp cells, FITC-Annexin V/PI; format: cell-based; details: completely cured composite discs in 0.4 μm inserts; one week
Protocol: Next, the effects of routinely used composites on the odontoblasts were tested. The composite discs were made according to ADA specifications. These discs were completely cured for a total time of about 90 seconds. The discs were then placed into culture dish inserts (Millipore, Calif.). […] The insert along with the composite disc were placed into the well containing the differentiated pulp cells. After one week of incubation at about 37° C. the cells were removed and the numbers of apoptotic cells were analyzed using FITC-Annexin V/PI as described previously.

[2] = test system: human dental pulp stromal cells; test: Apoptosis in human dental pulp stromal cells, 18 hours; format: cell-based; details: HEMA and NAC 20 mM
Protocol: Pulp was then removed, minced and treated with trypsin/EDTA and collagenase to release the dental pulp stromal cells. […] Next the cells were analyzed for apoptosis using FTIC-Annexin V and PI.

[3] = test system: human dental pulp stromal cells; test: ALP staining of human dental pulp stromal cells; format: cell-based; details: after 7 days of incubation; NAC 20 mM
Protocol: Following the experiment described above in human dental pulp stromal cells, treatments were carried out as described above with the levels of ALP staining representing maturation/differentiation of dental pulp stromal cells. This staining was performed after 7 days of incubation. […] Odontoblasts

odontoblasts = test: Cell viability of rat odontoblasts; format: cell-based; details: 0.0164M-0.00164M HEMA with NAC 20 mM, about 12-14 hours, versus HEMA alone
Protocol: Differentiation was induced by the addition of about 10 mM of β-glycerophosphate and about 50 μg/ml of ascorbic acid.

[4] = test system: teeth and surrounding tissue; test: Rat tooth bleaching with or without NAC: photographs of teeth and tissue; format: in vivo
Protocol: Rats were divided into the following groups: A: control, unbleached; B: bleached with no NAC; and C: Bleached with NAC. The bleaching agent used in the following studies was Oral B Rembrandt whitening system (containing 33% hydrogen peroxide and carbamide) often used in dental offices (chair side). NAC was initially painted on teeth at a 20 mM concentration for 5 minutes. Next a bleaching agent was applied for 5 hours, after which the teeth were extracted, and pulp was obtained from each group and treated with trypsin/EDTA (0.25%) and collagenase (0.02%). […] Also note that bleaching in the presence of NAC (F) was as effective as bleaching without the NAC (E). […] Note the white tissue in the absence of NAC which represents dead and dying tissue.

[5] = test system: dental pulp stromal cells; test: Rat tooth bleaching: dental pulp stromal cell growth, count and ALP; format: in vivo, rats; details: bleaching agent 5 hours, without or with NAC 20 mM painted 5 minutes; 12-21 days
Protocol: Similar studies were also carried out using dental pulp stromal cells. Rats were divided into three groups: (1) Control (no bleach); (2) Bleach; and (3) Bleach and NAC. In these studies, NAC was initially painted on to the teeth (20 mM concentration) for 5 minutes and then bleaching agent applied for 5 hours, after which the teeth were extracted, and pulp was obtained from each group. Pulp was treated with trypsin/EDTA (0.25%) and collagenase (0.02%) to obtain single cell suspension of the cells, washed and resuspended in DMEM containing β-glycerophosphate (10 mM) and ascorbic acid (50 μg/ml), and allowed to grow to confluency, before either photographs were taken (12-21 days; FIG. 47); cells were counted (21 days; FIG. 48); or ALP staining was performed (21 days; FIG. 49). […] Whitening Strips

[6] = test system: human dental pulp stromal cells; test: Extracted human teeth restored with composite resin with or without NAC: pulp cell growth; details: restorations left 5 hours; 14 days of incubation
Protocol: Three freshly extracted human teeth were obtained. Cavity preparations were performed on 2 freshly extracted third molars before restoration. One molar was left untouched and used as control. Specifically, tooth #1 was left untreated; tooth #2 was restored with composite resin alone; and tooth #3 was restored with composite resin after application of NAC. […] Single cell suspensions of control and each restored tooth were then cultured in the presence of β-glycerophosphate (10 mM) and ascorbic acid (50 μg/ml) and microscopic pictures taken after 14 days of incubation for growth.

active caspase 3 = test: Active caspase 3 staining in PBMCs treated with HEMA or CDDP; format: cell-based; details: HEMA 0.0164M

Row | Structure (SMILES) | apoptotic cells (FITC-Annexin V/PI) [1] | inhibition of HEMA-mediated cell death [2] | HEMA-mediated decrease in ALP [3] | percentage of viable cells (odontoblasts) | efficacy or potency of the bleaching system ([4]; NAC 20 mM painted on teeth 5 minutes, then bleaching agent 5 hours) | white (dead and dying) tissue after bleaching ([4]; bleaching agent 5 hours, without or with NAC 20 mM) | cytotoxicity and cell death of dental pulp stromal cells [5] | growth of pulp cells [6] | increase in active caspase 3 staining compared to the CDDP treated cells (active caspase 3) | active caspase 3 staining (active caspase 3; CDDP) [%]
1 | CC(=O)N[C@@H](CS)C(=O)O [NAC, N-acetyl-cysteine] | inhibits cell death induced by light cured composite disks | significant inhibition of HEMA-mediated cell death at all HEMA concentrations | significantly prevented | percentage of viable cells increases | does not decrease the efficacy or potency of the bleaching system | the amount of white tissue is minimal | could be reversed | growth and expansion of the cells resulted | – | –
2 | C=C(C)C(=O)OCCO [HEMA, hydroxyethyl methacrylate] | – | – | – | – | – | – | – | – | about 2 fold | 42
